From BindingDB's records for doi:10.1021/jm000508c (Ontogen, 2001)

Columns and labels:
[1] = Inhibitory activity against P-selectin using cell-cell assay
[2] = Inhibitory activity against Selectin E using cell-cell assay

SMILES	IC50 [1] [µM]	IC50 [2] [µM]
CCCCCCCCCCCCCCCCNC(=O)C=Cc1ccc(-c2[nH]c(-c3ccc(C4=NOC(C(=O)O)C4)cc3)nc2-c2ccc(C=CC(=O)O)cc2)cc1 (stereo not drawn) [3-(4-{4-[4-(2-Carboxy-vinyl)-phenyl]-5-[4-(2-hexadecylcarbamoyl-vinyl)-phenyl]-1H-imidazol-2-yl}-phenyl)-4,5-dihydro-isoxazole-5-carboxylic acid]	14	30
CCCCCCCCCCCCCCCCNC(=O)C=Cc1ccc(-c2[nH]cnc2-c2ccc(C=CC(=O)O)cc2)cc1 [3-(4-{5-[4-(2-Hexadecylcarbamoyl-vinyl)-phenyl]-1H-imidazol-4-yl}-phenyl)-acrylic acid]	98	> 100
O=C(O)C=Cc1ccc(-c2nc(-c3ccc(C4=NOC(C(=O)O)C4)cc3)c(-c3ccc(C=CC(=O)NCCCc4ccccc4)cc3)[nH]2)cc1 (stereo not drawn) [3-[4-(2-[4-(2-Carboxy-vinyl)-phenyl]-5-{4-[2-(3-phenyl-propylcarbamoyl)-vinyl]-phenyl}-1H-imidazol-4-yl)-phenyl]-4,5-dihydro-isoxazole-5-carboxylic acid]	123	

More lines, now with the values ahead:

IC50 [1] [µM]	IC50 [2] [µM]	SMILES
500		CCCCCCCCCCCCNC(=O)C=Cc1ccc(-c2[nH]c(-c3ccc(-c4cc(C(=O)O)on4)cc3)nc2-c2ccc(C=CC(=O)O)cc2)cc1 [3-(4-{4-[4-(2-Carboxy-vinyl)-phenyl]-5-[4-(2-dodecylcarbamoyl-vinyl)-phenyl]-1H-imidazol-2-yl}-phenyl)-isoxazole-5-carboxylic acid]
8	20	CCCCCCCCCCCCCCCCNC(=O)C=Cc1ccc(-c2[nH]c(-c3ccc(-c4cc(C(=O)O)on4)cc3)nc2-c2ccc(C=CC(=O)O)cc2)cc1 [3-(4-{4-[4-(2-Carboxy-vinyl)-phenyl]-5-[4-(2-hexadecylcarbamoyl-vinyl)-phenyl]-1H-imidazol-2-yl}-phenyl)-isoxazole-5-carboxylic acid]
